Test results as given in patent US20140329755A1, “COMBINATION THERAPY FOR THE TREATMENT OF ARRHYTHMIAS OR HEART FAILURE” (Gilead Sciences, Inc., priority 2013, published 2014).
Read-outs that look alike come from different tables or passages of the source.

Legend:
[1] = system: isolated rat right atria; test: ATX-II-induced AF in isolated rat right atria; details: 3 μmol/L ranolazine, 100 nmol/L GS967, 300 nmol/L KN-93, 300 nmol/L AIP, alone or combined; FIG. 1
Method: (§1) Rats were anesthetized by intraperitoneal injection of 60 mg/kg ketamine and 8 mg/kg xylazine. The heart was rapidly removed and immersed in oxygenated Krebs-Henseleit buffer (in mmol/L: 118 NaCl, 4.8 KCl, 1.2 KH2PO4, 2.5 CaCl2, 1.2, MgSO4, 2 pyruvic acid, 5.5 glucose, 0.5 Na2EDTA, and 25 NaHCO3, pH 7.4). Rat right atria were quickly excised and suspended in a chamber of the Danish Myo Technologies (DMT) myograph containing 8 ml of oxygenated Krebs-Henseleit buffer. Mechanical and electrical changes were measured simultaneously in spontaneously beating atria. Isometric tension was recorded by a force transducer connected to a PowerLab data acquisition system (AD Instruments, Colorado Springs, Colo.). A bipolar electrode was attached to the surface of the atrium to record an electrogram. After stabilization, the atria were preincubated with a late INa inhibitor (0.1 μmol/L GS967 or 3 μmol/L ranolazine), a CaMKII inhibitor ((0.3 μmol/L AIP or 0.3 μmol/L KN-93) or their combination for 30 min, then treated with 50 nmol/L ATX-II to induce arrhythmias and diastolic dysfunction.
(§2) Isolated right atria beat spontaneously at a rate of 298+12 bpm. ATX-II induced premature beats, tachyarrhythmia and fibrillation in rat isolated right atria. Arrhythmias were recorded for 30 min following ATX-II treatment, and quantified using an arbitrary numerical grading of perceived severity as described previously (32) and shown in Table 1.

[2] = system: isolated rat right atria; test: ATX-II-induced increase of diastolic tension in isolated rat right atria; details: 3 μM RAN, 0.1 μM GS-967, 0.3 μM KN-93, 0.3 μM AIP, alone or combined, 50 nmol/L ATX-II
Method: as §1

[3] = system: late INa; details: cited from earlier work
[4] = system: late INa; details: isolated hearts; read-out: IC50, ATX-II-induced late INa; cited from earlier work
[5] = system: isolated ventricular myocytes and hearts; details: cited from earlier work
[6] = target: peak INa (Homo sapiens, UniProt Q14524); details: cited from earlier work
[7] = system: isolated rat atrial myocytes; test: ATX-II-induced diastolic Ca2+ increase in isolated rat atrial myocytes; format: cell-based; details: 100 nmol/L GS967, 300 nmol/L AIP, alone or combined; FIG. 3
Method: Adult male rats were anesthetized and hearts were rapidly removed and perfused in a retrograde mode (Langendorff preparation) with a modified Tyrode solution containing (in mmol/L): NaCl (135), KCl (4.6), MgCl2 (1.1), NaH2PO4 (1) glucose (10), HEPES (10), pH 7.4. Hearts were perfused for 5 min with a nominal Ca^2+-free Tyrode solution, then with a low Ca^2+ (2 µmol/L) solution containing 0.896 mg/ml collagenase type II (Worthington, USA) and 0.68 mg/ml bovine serum albumin (BSA) for 8-11 min at 37° C. […]
[Molecular Probes, USA], indo-1 AM [Molecular Probes] or 5 μmol/L Asante NaTRIUM Green 2 AM (Teflabs, USA) by incubation for 25 min at 23° C. in bath solution containing 1.0 mmol/L Ca^2+, and 2.5 μmol/L pluronic acid (Molecular Probes). Fluo-4 was excited at 488 nm, and the fluorescence was acquired at wavelengths >505 nm in the line scan mode or XY mode of the confocal system. Asante NaTRIUM Green 2 was excited at 543 nm, and fluorescence was acquired at wavelengths >560 nm in the XY scan mode. Intracellular calcium concentrations were monitored in electrically stimulated cells loaded with indo-1 AM using an IonOptix spectrophotometer (IonOptix, Milton, Mass.). […] Emitted fluorescence (405 nm and 485 nm) was detected by a photomultiplier tube. […] Fluorescent images were analyzed using ImageJ software (NIH) and Origin 8.1 (OriginLab, USA).

[8] = system: isolated rat right atria; test: ATX-II-induced arrhythmias in spontaneously beating isolated rat right atria (arrhythmia score); details: for IC50: isolated rat right atria, read-out: IC50, prevention of ATX-II induced arrhythmias and diastolic dysfunction
Method: as §1, §2

[9] = Rattus norvegicus, read-out: Measured % Inhibition of ATX-II-induced increase of diastolic tension
[10] = 3 μM RAN, 0.1 μM GS-967, 0.3 μM KN-93, 0.3 μM AIP, alone or combined, 30 min preincubation, then 50 nmol/L ATX-II
[11] = Rattus norvegicus, 3 μM RAN, 0.1 μM GS-967, 0.3 μM KN-93, 0.3 μM AIP, alone or combined, 30 min preincubation, then 50 nmol/L ATX-II, read-out: measured % Inhibition of ATX-II-induced arrhythmias

peak INa, sequence (Q14524 whole entry): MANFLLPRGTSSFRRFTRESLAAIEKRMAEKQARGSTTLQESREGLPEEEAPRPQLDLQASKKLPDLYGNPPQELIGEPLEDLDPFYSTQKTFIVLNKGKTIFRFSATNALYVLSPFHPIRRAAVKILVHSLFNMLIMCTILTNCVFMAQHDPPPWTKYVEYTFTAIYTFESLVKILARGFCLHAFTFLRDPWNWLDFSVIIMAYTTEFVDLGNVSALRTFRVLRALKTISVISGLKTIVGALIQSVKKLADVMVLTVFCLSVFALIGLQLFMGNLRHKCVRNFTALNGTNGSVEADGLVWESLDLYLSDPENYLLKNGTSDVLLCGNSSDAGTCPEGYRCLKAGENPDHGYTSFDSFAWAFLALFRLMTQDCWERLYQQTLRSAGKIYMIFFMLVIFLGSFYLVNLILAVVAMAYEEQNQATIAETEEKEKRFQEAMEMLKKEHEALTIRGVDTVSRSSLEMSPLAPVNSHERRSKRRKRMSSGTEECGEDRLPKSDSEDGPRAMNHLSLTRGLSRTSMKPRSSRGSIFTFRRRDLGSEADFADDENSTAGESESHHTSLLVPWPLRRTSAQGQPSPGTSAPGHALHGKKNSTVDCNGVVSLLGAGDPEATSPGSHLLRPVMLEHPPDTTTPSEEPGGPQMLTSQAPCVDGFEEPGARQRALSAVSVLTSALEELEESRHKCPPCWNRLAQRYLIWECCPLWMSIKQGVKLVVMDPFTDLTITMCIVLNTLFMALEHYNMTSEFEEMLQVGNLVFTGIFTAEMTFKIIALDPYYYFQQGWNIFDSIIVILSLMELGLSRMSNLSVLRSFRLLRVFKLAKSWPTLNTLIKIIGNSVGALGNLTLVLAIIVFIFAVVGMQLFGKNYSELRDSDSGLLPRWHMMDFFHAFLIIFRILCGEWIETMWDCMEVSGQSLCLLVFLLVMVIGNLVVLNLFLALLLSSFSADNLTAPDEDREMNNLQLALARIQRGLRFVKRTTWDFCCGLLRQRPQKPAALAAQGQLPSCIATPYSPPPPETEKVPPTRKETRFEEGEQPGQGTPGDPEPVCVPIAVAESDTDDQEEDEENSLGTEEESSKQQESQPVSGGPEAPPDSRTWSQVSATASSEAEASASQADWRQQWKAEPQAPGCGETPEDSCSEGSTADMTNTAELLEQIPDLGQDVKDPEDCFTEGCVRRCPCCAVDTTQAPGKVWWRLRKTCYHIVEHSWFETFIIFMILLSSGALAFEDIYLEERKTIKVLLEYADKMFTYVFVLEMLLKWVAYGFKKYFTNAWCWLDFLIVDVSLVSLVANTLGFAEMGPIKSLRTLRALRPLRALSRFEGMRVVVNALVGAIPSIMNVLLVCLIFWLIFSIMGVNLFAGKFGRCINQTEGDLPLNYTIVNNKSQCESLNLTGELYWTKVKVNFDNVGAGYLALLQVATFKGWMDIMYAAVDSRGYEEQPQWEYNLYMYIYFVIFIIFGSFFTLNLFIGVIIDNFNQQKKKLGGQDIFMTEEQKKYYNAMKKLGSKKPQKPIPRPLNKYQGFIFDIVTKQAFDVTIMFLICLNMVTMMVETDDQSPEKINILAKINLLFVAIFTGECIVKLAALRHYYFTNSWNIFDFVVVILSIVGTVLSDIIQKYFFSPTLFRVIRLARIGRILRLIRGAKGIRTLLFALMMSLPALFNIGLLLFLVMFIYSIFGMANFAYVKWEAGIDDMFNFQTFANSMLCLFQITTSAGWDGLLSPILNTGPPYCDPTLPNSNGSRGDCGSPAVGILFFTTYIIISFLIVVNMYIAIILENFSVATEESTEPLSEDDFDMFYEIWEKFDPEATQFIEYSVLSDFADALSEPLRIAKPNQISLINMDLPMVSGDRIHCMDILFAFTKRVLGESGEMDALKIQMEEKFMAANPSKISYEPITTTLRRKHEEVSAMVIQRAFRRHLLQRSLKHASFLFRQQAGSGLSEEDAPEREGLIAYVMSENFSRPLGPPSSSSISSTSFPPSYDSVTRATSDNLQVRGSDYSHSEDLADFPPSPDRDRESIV

SMILES | effect on ATX-II-induced AF [1] | inhibition at 0.1 µM [2, 9] | IC50 ([3]; ventricular myocytes, read-out: IC50, ATX-II-induced late INa) | reduction of late INa and arrhythmias compared with flecainide or ranolazine ([3]; vs flecainide or ranolazine) | IC50 [4] | proarrhythmic effects (afterdepolarizations and torsades de pointes) of ATX-II and E-4031 [5] | Reduction of peak INa ([6]; holding potential of −120 mV) | Reduction of peak INa ([6]; holding potential −80 mV) | inhibition of the ATX-II-induced increase of diastolic Ca2+ [7] | measured % Inhibition of ATX-II-induced arrhythmias [8, 10] | inhibition at 0.1 µM [8, 11] | IC50 [8] | Measured % Inhibition of ATX-II-induced increase of diastolic tension [2] | Measured % Inhibition of ATX-II-induced increase of diastolic tension ([2]; listed as RAN) | measured % Inhibition of ATX-II-induced arrhythmias ([8]; 3 μM RAN, 0.1 μM GS-967, 0.3 μM KN-93, 0.3 μM AIP, alone or combined, 30 min preincubation, then 50 nmol/L ATX-II, listed as RAN) | inhibition at 0.3 µM [2, 9] | inhibition at 0.3 µM [8, 11] | effect on ATX-II induced arrhythmias and diastolic dysfunction ([8]; rat right atria)
FC(F)(F)Oc1ccc(-c2ccc3nnc(C(F)(F)F)n3c2)cc1 [GS-967, 6-[4-(trifluoromethoxy)phenyl]-3-(trifluoromethyl)[1,2,4]triazolo[4,3-a]pyridine] | failed to attenuate | 9.1% | 130 nM | more potent and effective | 210 nM | prevented and reversed | minimal | increased | 13% | 34.2 ± 4.8% | 34% | 1290 nM | – | – | – | – | – | –
COc1ccccc1OCC(O)CN1CCN(CC(=O)Nc2c(C)cccc2C)CC1 (racemic) [ranolazine, (±)—N-(2,6-dimethylphenyl)-4-[2-hydroxy-3-(2-methoxyphenoxy)-propyl]-1-piperazineacetamide] | failed to attenuate | – | – | – | – | – | – | – | – | 28% | – | 14800 nM | 10.4% | 5.5 ± 1.5% | 23.8 ± 3.1% | – | – | –
COc1ccc(S(=O)(=O)N(CCO)c2ccccc2CN(C)C/C=C/c2ccc(Cl)cc2)cc1 [KN-93] | failed to attenuate | – | – | – | – | – | – | – | – | 24.1 ± 7.6% | – | – | – | – | – | 8.4% | 23% | prevented
